Reference: patent US8163771B2, “11 β-HSD1 modulators” (Exelixis, Inc., priority 2008, dated 2012)

Molecular target: T1, recombinant human 11 β-HSD1 (Homo sapiens, UniProt P28845)
T1 construct: made in house; host or cells: E. coli
Assay: 11 β-HSD1 SPA Assay (Scintillation Proximity Assay)
Assay type: biochemical
How it was run: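 E. coli-expressed human enzyme (30-100 nM) with tritiated cortisone 40 nM and NADPH 1 mM in HEPES buffer pH7.4, 2 hours at room temperature. Stopped with protein A SPA beads carrying anti-cortisol antibody and glycyrrhetinic acid; counted after overnight incubation. IC50 from percent inhibition between no-enzyme and no-compound signals.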

T1 sequence (P28845 whole entry): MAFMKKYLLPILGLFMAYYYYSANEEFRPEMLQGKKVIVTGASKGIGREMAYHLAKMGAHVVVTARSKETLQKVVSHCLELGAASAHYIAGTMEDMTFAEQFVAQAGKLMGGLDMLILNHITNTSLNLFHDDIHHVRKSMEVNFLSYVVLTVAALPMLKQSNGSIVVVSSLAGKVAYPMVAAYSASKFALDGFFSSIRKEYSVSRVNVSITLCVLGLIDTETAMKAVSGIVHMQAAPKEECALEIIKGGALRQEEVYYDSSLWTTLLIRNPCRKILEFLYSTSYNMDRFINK

Compound	IC50 [nM]
CC(C)(Oc1ccc(Cl)cc1Cl)C(=O)N1[C@@H]2CC[C@H]1C[C@@H](Nc1ccc(C(N)=O)cn1)C2 [Example 302, 6-[(8-{2-[(2,4-dichlorophenyl)oxy]-2-methylpropanoyl}-8-azabicyclo[3.2.1]oct-3-endo-yl)amino]pyridine-3-carboxamide]	< 200
CC(C)(Oc1cc(Cl)c(C(C)(C)O)cc1Cl)C(=O)N[C@H]1C[C@H]2CC[C@@H](C1)N2c1ccc(C(=O)NCC(F)F)cn1 [Example 303, 6-[3-endo-({2-[2,5-dichloro-4-(2-hydroxypropan-2-yl)phenoxy]-2-methylpropanoyl}amino)-8-azabicyclo[3.2.1]oct-8-yl]-N-(2,2-difluoroethyl)pyridine-3-carboxamide]	< 200
CC(C)(Oc1cc(F)c(C(C)(C)O)cc1Cl)C(=O)N[C@H]1C[C@H]2CC[C@@H](C1)N2c1ccc(C(=O)NCC(F)F)cn1 [Example 304, 6-[3-endo-({2-[2-chloro-5-fluoro-4-(2-hydroxypropan-2-yl)phenoxy]-2-methylpropanoyl}amino)-8-azabicyclo[3.2.1]oct-8-yl]-N-(2,2-difluoroethyl)pyridine-3-carboxamide]	< 200
CC(C)(Oc1ccc(Cl)cc1C(F)(F)F)C(=O)N[C@H]1C[C@H]2CC[C@@H](C1)N2c1ccc(-c2nnn[nH]2)nc1 [Example 306, 2-{[4-chloro-2-(trifluoromethyl)phenyl]oxy}-2-methyl-N-{8-[6-(1H-tetrazol-5-yl)pyridin-3-yl]-8-azabicyclo[3.2.1]oct-3-endo-yl}propanamide]	< 200
CC(C)(Oc1ccc(Cl)cc1Cl)C(=O)N[C@H]1C[C@H]2CC[C@@H](C1)N2c1ccc(S(C)(=O)=O)nc1 [Example 307, 2-[(2,4-dichlorophenyl)oxy]-2-methyl-N-{8-[6-(methylsulfonyl)pyridin-3-yl]-8-azabicyclo[3.2.1]oct-3-endo-yl}propanamide]	< 200
CC(C)(C(=O)N[C@H]1C[C@H]2CC[C@@H](C1)N2c1ccc(S(C)(=O)=O)cn1)S(=O)(=O)c1ccc(Cl)cc1Cl [Example 308, 2-[(2,4-dichlorophenyl)sulfonyl]-2-methyl-N-{8-[5-(methylsulfonyl)pyridin-2-yl]-8-azabicyclo[3.2.1]oct-3-endo-yl}propanamide]	< 2000
CC(C)(Oc1cc(F)ccc1C(F)(F)F)C(=O)N[C@H]1C[C@H]2CC[C@@H](C1)N2c1ccc(C(N)=O)cn1 [Example 309, 6-{3-endo-[(2-{[5-fluoro-2-(trifluoromethyl)phenyl]oxy}-2-methylpropanoyl)amino]-8-azabicyclo[3.2.1]oct-8-yl}pyridine-3-carboxamide]	< 200
CC(C)(Oc1ccc2ccccc2n1)C(=O)N[C@H]1C[C@H]2CC[C@@H](C1)N2c1ccc(C(N)=O)cn1 [Example 310, 6-(3-endo-{[2-methyl-2-(quinolin-2-yloxy)propanoyl]amino}-8-azabicyclo[3.2.1]oct-8-yl)pyridine-3-carboxamide]	< 200
CS(=O)(=O)c1cccc(C2(C(=O)N[C@H]3C[C@H]4CC[C@@H](C3)N4c3ccc(C(N)=O)cn3)CC2)c1 [Example 311, 6-{3-endo-[({1-[3-(methylsulfonyl)phenyl]cyclo-propyl}carbonyl)amino]-8-azabicyclo[3.2.1]oct-8-yl}pyridine-3-carboxamide]	< 200
CC(C)(COc1ccc(Cl)cc1C(F)(F)F)C(=O)N[C@H]1C[C@H]2CC[C@@H](C1)N2c1ccc(C(=O)NCC(F)(F)F)cn1 [Example 312, 6-{3-endo-[(3-{[4-chloro-2-(trifluoromethyl)phenyl]oxy}-2,2-dimethylpropanoyl)amino]-8-azabicyclo[3.2.1]oct-8-yl}-N-(2,2,2-trifluoroethyl)pyridine-3-carboxamide]	< 200
CS(=O)(=O)c1cccc(C2(C(=O)N[C@H]3C[C@H]4CC[C@@H](C3)N4c3ccc(S(N)(=O)=O)cn3)CC2)c1 [Example 313, N-{8-[5-(aminosulfonyl)pyridin-2-yl]-8-azabicyclo[3.2.1]oct-3-endo-yl}-1-[3-(methylsulfonyl)phenyl]cyclo-propanecarboxamide]	< 2000
CC(C)(Oc1ncc(Cl)cc1C(F)(F)F)C(=O)N[C@H]1C[C@H]2CC[C@@H](C1)N2c1ccc(S(C)(=O)=O)cn1 [Example 314, 2-{[5-chloro-3-(trifluoromethyl)pyridin-2-yl]oxy}-2-methyl-N-{8-[5-(methylsulfonyl)pyridin-2-yl]-8-azabicyclo[3.2.1]oct-3-endo-yl}propanamide]	< 200
CC(C)(Oc1ccc(F)cc1Cl)C(=O)N[C@H]1C[C@H]2CC[C@@H](C1)N2c1ccc(NS(C)(=O)=O)cc1 [Example 315, 2-[(2-chloro-4-fluorophenyl)oxy]-2-methyl-N-(8-{4-[(methylsulfonyl)amino]phenyl}-8-azabicyclo[3.2.1]oct-3-endo-yl)propanamide]	< 200
CC(C)(Oc1ccc2ccccc2c1)C(=O)N[C@H]1C[C@H]2CC[C@@H](C1)N2c1ccc(C(N)=O)cn1 [Example 316, 6-(3-endo-{[2-methyl-2-(naphthalen-2-yloxy)propanoyl]amino}-8-azabicyclo[3.2.1]oct-8-yl)pyridine-3-carboxamide]	< 200
CC(C)(Oc1ccc(Cl)cc1Cl)C(=O)N[C@H]1C[C@H]2CC[C@@H](C1)N2c1ccc(C(=O)NC2COC2)cn1 [Example 317, 6-[3-endo-({2-[(2,4-dichlorophenyl)oxy]-2-methylpropanoyl}amino)-8-azabicyclo[3.2.1]oct-8-yl]-N-oxetan-3-ylpyridine-3-carboxamide]	< 200
CC(C)(Oc1ccnc2ccccc12)C(=O)N[C@H]1C[C@H]2CC[C@@H](C1)N2c1ccc(C(N)=O)cn1 [Example 318, 6-(3-endo-{[2-methyl-2-(quinolin-4-yloxy)propanoyl]amino}-8-azabicyclo[3.2.1]oct-8-yl)pyridine-3-carboxamide]	< 200
CC(C)(Oc1cc(F)ccc1C(F)(F)F)C(=O)N[C@H]1C[C@H]2CC[C@@H](C1)N2c1ccc(C(=O)NCC(F)(F)F)cn1 [Example 319, 6-{3-endo-[(2-{[5-fluoro-2-(trifluoromethyl)phenyl]oxy}-2-methylpropanoyl)amino]-8-azabicyclo[3.2.1]oct-8-yl}-N-(2,2,2-trifluoroethyl)pyridine-3-carboxamide]	< 200
CC(C)(Oc1ccc(Cl)cc1C1CCCC1)C(=O)N[C@H]1C[C@H]2CC[C@@H](C1)N2c1ccc(C(N)=O)cn1 [Example 320, 6-[3-endo-({2-[(4-chloro-2-cyclopentylphenyl)oxy]-2-methylpropanoyl}amino)-8-azabicyclo[3.2.1]oct-8-yl]pyridine-3-carboxamide]	< 200
CC(C)(Oc1ccc(Cl)cc1S(C)(=O)=O)C(=O)N[C@H]1C[C@H]2CC[C@@H](C1)N2c1ccc(C(=O)NCC(F)(F)F)cn1 [Example 321, 6-{3-endo-[(2-{[4-chloro-2-(methylsulfonyl)phenyl]oxy}-2-methylpropanoyl)amino]-8-azabicyclo[3.2.1]oct-8-yl}-N-(2,2,2-trifluoroethyl)pyridine-3-carboxamide]	< 200
CC(C)(Oc1ccc(Cl)cc1-c1ccccc1)C(=O)N[C@H]1C[C@H]2CC[C@@H](C1)N2c1ccc(C(N)=O)cn1 [Example 322, 6-[3-endo-({2-[(5-chlorobiphenyl-2-yl)oxy]-2-methylpropanoyl}amino)-8-azabicyclo[3.2.1]oct-8-yl]pyridine-3-carboxamide]	< 200
CC(C)(Oc1ccc(Cl)cc1Cl)C(=O)N[C@H]1C[C@H]2CC[C@@H](C1)N2Cc1ccc(C(N)=O)cn1 [Example 323, 6-{[3-endo-({2-[(2,4-dichlorophenyl)oxy]-2-methylpropanoyl}amino)-8-azabicyclo[3.2.1]oct-8-yl]methyl}pyridine-3-carboxamide]	< 2000
CC(C)(Oc1ccc(Cl)cc1S(C)(=O)=O)C(=O)N[C@H]1C[C@H]2CC[C@@H](C1)N2c1ccc(S(C)(=O)=O)cn1 [Example 324, 2-{[4-chloro-2-(methylsulfonyl)phenyl]oxy}-2-methyl-N-{8-[5-(methylsulfonyl)pyridin-2-yl]-8-azabicyclo[3.2.1]oct-3-endo-yl}propanamide]	< 2000
CC(C)(Oc1ncc(Cl)cc1C(F)(F)F)C(=O)N[C@H]1C[C@H]2CC[C@@H](C1)N2c1ccc(S(C)(=O)=O)cc1 [Example 325, 2-{[5-chloro-3-(trifluoromethyl)pyridin-2-yl]oxy}-2-methyl-N-{8-[4-(methylsulfonyl)phenyl]-8-azabicyclo[3.2.1]oct-3-endo-yl}propanamide]	< 200
CC(C)(Oc1ccccc1S(C)(=O)=O)C(=O)N[C@H]1C[C@H]2CC[C@@H](C1)N2c1ccc(C(N)=O)cn1 [Example 326, 6-{3-endo-[(2-methyl-2-{[2-(methylsulfonyl)phenyl]oxy}propanoyl)amino]-8-azabicyclo[3.2.1]oct-8-yl}pyridine-3-carboxamide]	< 200
CC(C)(Oc1ccc(Cl)cc1Cl)C(=O)N[C@H]1C[C@H]2CC[C@@H](C1)N2C(=O)c1cccc(C(N)=O)c1 [Example 327, 3-{[3-endo-({2-[(2,4-dichlorophenyl)oxy]-2-methylpropanoyl)amino)-8-azabicyclo[3.2.1]oct-8-yl]carbonyl}benzamide]	< 2000
CC(C)(Sc1ccc(Cl)cc1Cl)C(=O)N[C@H]1C[C@H]2CC[C@@H](C1)N2c1ccc(S(C)(=O)=O)cn1 [Example 328, 2-[(2,4-dichlorophenyl)thio]-2-methyl-N-{8-[5-(methylsulfonyl)pyridin-2-yl]-8-azabicyclo[3.2.1]oct-3-endo-yl}propanamide]	< 200
CC(C)(Oc1ccc(Cl)c(Cl)c1)C(=O)N[C@H]1C[C@H]2CC[C@@H](C1)N2c1ccc(NS(C)(=O)=O)cc1 [Example 329, 2-[(3,4-dichlorophenyl)oxy]-2-methyl-N-(8-{4-[(methylsulfonyl)amino]phenyl}-8-azabicyclo[3.2.1]oct-3-endo-yl)propanamide]	< 200
